Reference: patent US20170066717A1, “NEW PHENYLAZETIDINECARBOXYLATE OR -CARBOXAMIDE COMPOUNDS” (INVENTIVA, priority 2014, published 2017)

Tests used:
NURR-1/RXRα = biological target: T1, NURR-1/RXRα (Homo sapiens, UniProt P19793); test: Transactivation test, NURR-1-Gal4/RXRα, luciferase reporter in Cos-7 cells; type: cell-based; details: for Emax: COS-7, induction level relative to reference XCT0135908 at 2×10^−5 M (=100%), read-out: hNurr1_RXRaFL Emax (%); for EC50: Cos-7 cells, NURR-1-Gal4/RXRα, luciferase reporter, read-out: hNurr1_RXRaFL EC50
T1 construct: expressed in transfected cells; host or cells: Cos-7 cells
Method: (§1) The ability of the compounds according to the invention to behave as an activator of the heterodimers formed by the NURR-1 nuclear receptor and the RXR nuclear receptors was measured by means of an in vitro test. A transactivation test was used as primary selection (screening) test. Cos-7 cells were cotransfected with a plasmid expressing a chimera of the human NURR-1-Gal4 receptor, a plasmid expressing the human RXR receptor (RXRα or RXRγ receptor) and a 5Gal4pGL3-TK-Luc reporter plasmid. The transfctions were carried out using a chemical agent (Jet PEI). The transfected cells were distributed into 384-well plates and left to stand for 21 hours. At time 24 hours the culture medium was changed. The test products were added (final concentration of between 10^''4 and 3×10^-10 M) to the culture medium. After incubation overnight, the lucifeiase expression was measured after addition of SteadyGlo according to the instructions of the manufacturer (Promega). […] The induction levels (Emax) were calculated relative to the basal activity of each heterodimer.

NURR-1/RXRγ = biological target: T2, NURR-1/RXRγ (Homo sapiens, UniProt P48443); test: Transactivation test, NURR-1-Gal4/RXRγ, luciferase reporter in Cos-7 cells; type: cell-based; details: for Emax: COS-7, induction level relative to reference XCT0135908 at 2×10^−5 M (=100%), read-out: hNurr1_RXRgFL Emax (%); for EC50: Cos-7 cells, NURR-1-Gal4/RXRγ, luciferase reporter, read-out: hNurr1_RXRgFL EC50
T2 construct: expressed in transfected cells; host or cells: Cos-7 cells
Method: as §1

[1] = induction level relative to reference XCT0135908 at 2×10^−5 M (=100%)

T2 sequence (P48443 whole entry, the tested form may be a part): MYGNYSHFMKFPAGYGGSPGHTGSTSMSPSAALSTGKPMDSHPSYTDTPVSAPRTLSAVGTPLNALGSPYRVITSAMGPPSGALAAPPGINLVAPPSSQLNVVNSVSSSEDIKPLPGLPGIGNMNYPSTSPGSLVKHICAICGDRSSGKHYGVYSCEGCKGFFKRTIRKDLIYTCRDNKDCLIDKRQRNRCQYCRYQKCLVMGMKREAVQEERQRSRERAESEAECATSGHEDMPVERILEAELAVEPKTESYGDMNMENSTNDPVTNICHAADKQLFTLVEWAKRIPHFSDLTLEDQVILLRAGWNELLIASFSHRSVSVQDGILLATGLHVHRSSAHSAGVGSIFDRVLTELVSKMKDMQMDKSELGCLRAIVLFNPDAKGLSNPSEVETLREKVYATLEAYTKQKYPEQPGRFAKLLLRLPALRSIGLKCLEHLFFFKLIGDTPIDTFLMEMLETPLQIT
T2 sequence (P43354 whole entry partner, the tested form may be a part): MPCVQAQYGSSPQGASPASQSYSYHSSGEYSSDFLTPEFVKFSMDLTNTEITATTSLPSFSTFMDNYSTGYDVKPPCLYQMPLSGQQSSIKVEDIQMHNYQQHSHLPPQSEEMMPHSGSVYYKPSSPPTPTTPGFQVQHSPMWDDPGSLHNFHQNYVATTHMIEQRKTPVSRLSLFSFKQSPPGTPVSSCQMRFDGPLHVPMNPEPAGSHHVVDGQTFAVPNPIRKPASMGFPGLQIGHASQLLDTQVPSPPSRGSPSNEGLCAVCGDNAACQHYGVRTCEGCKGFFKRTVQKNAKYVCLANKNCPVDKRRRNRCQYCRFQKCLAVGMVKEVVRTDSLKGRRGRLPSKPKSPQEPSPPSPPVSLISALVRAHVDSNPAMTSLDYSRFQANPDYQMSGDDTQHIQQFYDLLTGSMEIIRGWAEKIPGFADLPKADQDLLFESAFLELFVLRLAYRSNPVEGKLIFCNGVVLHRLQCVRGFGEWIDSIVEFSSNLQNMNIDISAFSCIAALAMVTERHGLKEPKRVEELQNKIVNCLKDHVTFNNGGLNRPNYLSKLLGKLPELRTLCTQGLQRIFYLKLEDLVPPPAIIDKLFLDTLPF
T2 sequence (P04386 1-147 partner limits assumed): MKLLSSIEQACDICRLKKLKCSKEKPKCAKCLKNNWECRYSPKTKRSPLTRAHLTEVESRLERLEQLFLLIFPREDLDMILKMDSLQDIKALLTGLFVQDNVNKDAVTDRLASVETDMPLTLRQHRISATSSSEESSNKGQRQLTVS
T1 sequence (P19793 whole entry, the tested form may be a part): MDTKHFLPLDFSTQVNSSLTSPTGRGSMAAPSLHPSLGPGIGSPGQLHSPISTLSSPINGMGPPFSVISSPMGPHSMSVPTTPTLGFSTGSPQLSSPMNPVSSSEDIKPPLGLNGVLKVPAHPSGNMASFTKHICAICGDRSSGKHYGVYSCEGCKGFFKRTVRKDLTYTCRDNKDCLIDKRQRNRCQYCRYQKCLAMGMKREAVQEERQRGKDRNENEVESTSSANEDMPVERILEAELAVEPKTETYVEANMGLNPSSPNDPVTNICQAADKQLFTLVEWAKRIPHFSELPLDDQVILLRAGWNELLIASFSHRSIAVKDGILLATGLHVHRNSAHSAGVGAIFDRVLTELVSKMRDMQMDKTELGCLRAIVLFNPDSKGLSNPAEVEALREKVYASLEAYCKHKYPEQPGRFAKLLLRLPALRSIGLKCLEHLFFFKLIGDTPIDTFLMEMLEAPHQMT
T1 sequence (P43354 whole entry partner, the tested form may be a part): as the sequence (P43354 whole entry partner, the tested form may be a part) above
T1 sequence (P04386 1-147 partner limits assumed): as the sequence (P04386 1-147 partner limits assumed) above

SMILES | Emax (NURR-1/RXRα) | EC50 (NURR-1/RXRα) | Emax (NURR-1/RXRγ) | EC50 (NURR-1/RXRγ) | hNurr1_RXRaFL Emax (%) (NURR-1/RXRα; [1]) | hNurr1_RXRgFL Emax (%) (NURR-1/RXRγ; [1])
Cc1cn(-c2cc(N3CC(C(=O)O)C3)cc(C(C)(C)C)c2)c2ccc(C(F)(F)F)cc12 [Example 56, 1-[3-tert-butyl-5-[3-methyl-5-(trifluoromethyl)indol-1-yl]phenyl]azetidine-3-carboxylic acid] | 46% | > 5000 nM | 38% | 1080 nM |  | 
Cc1cc(-c2cccc(N3CCCCC3)c2)cc(N2CC(C(=O)O)C2)c1 [Example 17, 1-[3-methyl-5-[3-(1-piperidyl)phenyl]phenyl]azetidine-carboxylic acid] | 99% | 53 nM | 84% | 119 nM |  | 
Cc1cc(-c2cc(F)cc(C(F)(F)F)c2)cc(N2CC(C(=O)O)C2)c1 [Example 8, 1-[3-[3-fluoro-5-(trifluoromethyl)phenyl]-5-methluphenyl]azetidine-3-carboxylic acid] | 107% | 5 nM | 107% | 12 nM |  | 
Cc1cn(S(=O)(=O)c2cccc(N3CC(C(=O)O)C3)c2)c2ccc(C(F)(F)F)cc12 [Example 59, 1-[3-[3-methyl-5-(trifluoromethyl)indol-1-yl]sulfonylphenyl]azetidine-3-carboxylic acid] | 68% | 1380 nM | 39% | 3580 nM |  | 
Cc1cc(-c2cccc(Cl)c2)cc(N2CC(C(=O)O)C2)c1 [Example 27, 1-[3-[3-chlorophenyl]-5-methylpehnyl]azetidine-3-carboxylic acid] | 119% | 165 nM | 114% | 232 nM |  | 
Cc1cn(-c2cc(N3CC(C(=O)O)C3)cc(C(F)(F)F)c2)c2ccc(C(F)(F)F)cc12 [Example 43, 1-[3-[3-methyl-5-(trifluoromethyl)indol-1-yl]-5-(trifluoromethyl)phenyl]azetidine-3-carboxylic acid] | 84% | 6 nM | 90% | 9 nM |  | 
Cc1cc(-c2cccc(N3CCOCC3)c2)cc(N2CC(C(=O)O)C2)c1 [Example 6, 1-[3-methyl-5-(3-morpholinophenyl)phenyl]azetidine-3-carboxylic acid] | 111% | 186 nM | 101% | 461 nM |  | 
CCCNc1ccc(C(C)C)cc1-c1cccc(N2CC(C(=O)O)C2)c1 [Example 68, 1-[3-[5-isopropyl-2-(propylamino)phenyl]phenyl]azetidine-3-carboxylic acid] | 127% | 9 nM | 143% | 12 nM |  | 
Cc1cc(-c2cccc(C(F)(F)F)c2C)cc(N2CC(C(=O)O)C2)c1 [Example 15, 1-[3-methyl-5-[2-methyl-3-(trifluoromethyl)phenyl]phenyl]azetidine-3-carboxylic acid] | 95% | 22 nM | 85% | 43 nM |  | 
Cc1cc(N2CC(C(=O)O)C2)cc(-n2cc(Cl)c3cc(C(F)(F)F)ccc32)c1 [Example 57, 1-[3-[3-chloro-5-(triflurooemthyl)indol-1-yl]-5-methylphenyl]azetidine-3-carboxylic acid] |  | 1 nM |  | 2 nM | 126% | 114%
Cc1cn(-c2cc(OC(F)(F)F)cc(N3CC(C(=O)O)C3)c2)c2ccc(C(F)(F)F)cc12 [Example 52, 1-[3-[3-methyl-5-(trifluoromethyl)indol-1-yl]-5-(trifluoromethoxy)phenyl]azetidine-3-carboxylic acid] | 86% | 83 nM | 117% | 117 nM |  | 
Cc1nc(C(F)(F)F)nc(-c2cccc(N3CC(C(=O)O)C3)c2)c1C [Example 35, 1-[3-[5,6-dimethyl-2-(trifloruomethyl)pyrrimidin-4-yl]phenyl]azetidine-3-carboxylic acid] | 45% | > 5000 nM | 44% | > 5000 nM |  | 

Now from value to compound:

Emax (NURR-1/RXRα) | EC50 (NURR-1/RXRα) | Emax (NURR-1/RXRγ) | EC50 (NURR-1/RXRγ) | hNurr1_RXRaFL Emax (%) (NURR-1/RXRα; [1]) | hNurr1_RXRgFL Emax (%) (NURR-1/RXRγ; [1]) | SMILES
87% | 181 nM | 111% | 455 nM |  |  | Cc1cn(-c2cccc(N3CC(C(=O)NCCN(C)C)C3)c2)c2ccc(C(F)(F)F)cc12 [Example 153, N-(2-dimethylaminoethyl)-1-[3-[3-methyl-5-(trifluoromethyl)indol-1-yl]phenyl]azetidine-3-carboxamide]
49% | 12 nM | 38% | 13 nM |  |  | O=C(O)C1CN(c2cccc(-c3cc(C(F)(F)F)ccc3OCc3ccccc3Cl)c2)C1 [Example 97, 1-[3-[2-[(2-chlorophenyl)methyoxy]-5-(trifluoromethyl)phenyl]phenyl]azetidine-3-carboxylic acid]
102% | < 1 nM | 106% | < 1 nM |  |  | Cc1cn(-c2cccc(N3CC(C(=O)NCCO)C3)c2)c2ccc(C(F)(F)F)cc12 [Example 168]
91% | 341 nM | 95% | 620 nM |  |  | Cc1cn(-c2cccc(N3CC(C(=O)NCCCN(C)C)C3)c2)c2ccc(C(F)(F)F)cc12 [Example 174, N-[3-(dimethylamino)propyl]-1-[3-[3-methyl-5-(trifluoromethyl)indol-1-yl]phenyl]-azetidine-3-carboxamide]
109% | 13 nM | 149% | 26 nM |  |  | CCCCNC(=O)C1CN(c2cccc(-n3cc(C)c4cc(C(F)(F)F)ccc43)c2)C1 [Example 169, N-butyl-1-[3-[3-methyl-5-(trifluoromethyl)indol-1-yl]phenyl]azetidine-3-carboxamide]
115% | 7 nM | 122% | 10 nM |  |  | O=C(O)C1CN(c2cccc(N3CC4(CCCC4)c4cc(C(F)(F)F)ccc43)c2)C1 [Example 139, 1-[3-[5′-(trifluoromethyl)spiro[cyclopentane-1,3′-indoline]-1′-yl]phenyl]azetidine-3-carboxylic acid]
117% | 4 nM | 124% | 4 nM |  |  | CN(C)CCOC(=O)C1CN(c2cccc(N3CC(C)(C)Oc4cc(C(F)(F)F)ccc43)c2)C1 [Example 272, 2-dimethylaminoethyl 1-[3-[2,2-dimethyl-7-(trifluomethyl)-3H-1,4-benzoxazin-4-yl]phenyl]azetidine-3-carboxylate]
104% | 25 nM | 113% | 41 nM |  |  | Cc1cn(-c2cccc(N3CC(C(=O)NC4CCCC4)C3)c2)c2ccc(C(F)(F)F)cc12 [Example 166, N-cyclopetnyl-1-[3-[3-methyl-5-(trifluoromethyl)indol-1-yl]phenyl]azetidine-3-carboxamide]
90% | 7 nM | 88% | 10 nM |  |  | O=C(O)C1CN(c2cccc(-n3cc(CC4CCOCC4)c4cc(C(F)(F)F)ccc43)c2)C1 [Example 129, 1-[3-[3-(tetrahydropyran-4-ylmethyl)-5-(trifluoromethyl)indol-1-yl]phenyl]azetidine-3-carboxylic acid]
106% | 57 nM | 85% | 40 nM |  |  | CC(C)(C)c1cc(F)cc(-c2cccc(N3CC(C(=O)O)C3)c2)c1 [Example 75, 1-[3-(3-tert-butyl-5-fluorophenyl)phenyl]azetidine-3-carboxylic acid]
104% | 7 nM | 109% | 10 nM |  |  | Cc1cn(-c2cccc(N3CC(C(=O)NCC4CC4)C3)c2)c2ccc(C(F)(F)F)cc12 [Example 177, N-(cyclopropylmethyl)-1-[3-[3-methyl-5-(trifluoromethyl)indol-1-yl]phenyl]azetidine-3-carboxamide]
112% | 44 nM | 120% | 82 nM |  |  | CC(C)(C)c1cccc(-c2cccc(N3CC(C(=O)O)C3)c2)c1 [Example 84, 1-[3-(3-tert-butylphenyl)phenyl]azetidine-3-carboxylic acid]
110% | 29 nM | 117% | 74 nM |  |  | CC1(C)CN(c2cccc(N3CC(C(=O)NCCCO)C3)c2)c2ccc(C(F)(F)F)cc2O1 [Example 278, 1-[3-[2,2-dimethyl-7-(trifgluoromethyl)-3H-1,4-benzoxazin-4-yl]phenyl]-N-(3-hydroxypropyl)azetidine-3-carboxamide]
77% | 647 nM | 84% | 1260 nM |  |  | Cc1cn(-c2cccc(N3CC(C(=O)NCCCCN(C)C)C3)c2)c2ccc(C(F)(F)F)cc12 [Example 175, N-[4-(dimethylamino)butyl]-1-[3-[3-methyl-5-(trifluoromethyl)indol-1yl]phenyl]-azatidine-3-carboxamide]
103% | 168 nM | 96% | 293 nM |  |  | Cc1cn(-c2cccc(N3CC(C(=O)NCCN4CCN(C)CC4)C3)c2)c2ccc(C(F)(F)F)cc12 [Example 181, N-[2-(4-methylipiperazin-1-yl)ethyl]-1-[3-[3-methyl-5-(trifluoromethyl)indol-1-yl]phenyl]azetidine-3-carboxamide]
